Assay results: ChEMBL document CHEMBL1136683, “Potent and selective aggrecanase inhibitors containing cyclic P1 substituents” (Bioorg Med Chem Lett, 2003)
pIC50, pKi: −log10 of the molar value.

Columns and labels:
[1] = Inhibition of bovine aggrecanase; parameters: species or system Bos taurus
[2] = molecular target: Matrix metalloproteinase-9 (Homo sapiens, UniProt P14780); experiment: Affinity for Matrix metalloprotease-9 (MMP-9)
[3] = Systemic clearance after intravenous administration (0.5 mg/kg) was determined in dog; type: ADME, organism-based, Canis lupus familiaris; settings: in vivo
[4] = Tmax after peroral administration (10 mg/kg) was determined in rat; type: ADME, organism-based; settings: in vivo, po
[5] = Vss after intravenous administration (5.0 mg/kg) was determined in rat; type: ADME, organism-based; settings: in vivo, read-out: Vss
[6] = Systemic clearance after intravenous administration (5.0 mg/kg) was determined in rat; type: ADME, organism-based; settings: in vivo
[7] = Bioavailability after peroral administration (10 mg/kg) was determined in rat; type: ADME, organism-based; settings: in vivo, po
[8] = Tmax after peroral administration (1 mg/kg) was determined in dog; type: ADME, organism-based, Canis lupus familiaris; settings: in vivo, po
[9] = Bioavailability after peroral administration (1 mg/kg) was determined in dog; type: ADME, organism-based, Canis lupus familiaris; settings: in vivo, po
[10] = Vss after intravenous administration (0.5 mg/kg) was determined in dog; type: ADME, organism-based, Canis lupus familiaris; settings: in vivo, read-out: Vss
[11] = Half life time after intravenous administration (0.5 mg/kg) was determined in dog; type: ADME, organism-based, Canis lupus familiaris; settings: in vivo
[12] = Half life time after intravenous administration (5.0 mg/kg) was determined in rat; type: ADME, organism-based; settings: in vivo

Matrix metalloproteinase-9, sequence (P14780 whole entry): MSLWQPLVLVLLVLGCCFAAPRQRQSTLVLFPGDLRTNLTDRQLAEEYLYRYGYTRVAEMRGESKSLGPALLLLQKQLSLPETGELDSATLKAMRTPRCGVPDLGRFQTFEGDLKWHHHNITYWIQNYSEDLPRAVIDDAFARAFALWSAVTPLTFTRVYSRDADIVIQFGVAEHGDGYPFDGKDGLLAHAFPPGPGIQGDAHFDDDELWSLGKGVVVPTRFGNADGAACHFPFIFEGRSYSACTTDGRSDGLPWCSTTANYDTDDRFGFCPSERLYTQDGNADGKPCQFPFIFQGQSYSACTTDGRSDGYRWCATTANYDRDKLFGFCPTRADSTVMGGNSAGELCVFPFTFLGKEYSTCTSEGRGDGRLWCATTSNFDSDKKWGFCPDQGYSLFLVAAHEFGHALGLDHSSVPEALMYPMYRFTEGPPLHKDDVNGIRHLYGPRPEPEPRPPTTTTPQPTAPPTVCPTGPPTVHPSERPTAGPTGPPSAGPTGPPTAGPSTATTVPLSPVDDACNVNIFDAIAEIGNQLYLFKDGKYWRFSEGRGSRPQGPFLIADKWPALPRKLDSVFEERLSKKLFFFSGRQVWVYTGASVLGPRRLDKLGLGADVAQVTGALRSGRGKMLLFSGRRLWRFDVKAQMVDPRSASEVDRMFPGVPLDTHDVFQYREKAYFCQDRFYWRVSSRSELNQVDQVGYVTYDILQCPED

Row | SMILES | pIC50 [1] | pKi [2] | other results
1 | O=C(NO)[C@@H](NCC1CC1)[C@@H](Cc1cccc(O)c1)C(=O)N[C@H]1c2ccccc2C[C@H]1O | 7.92 |  | 
2 | CS(=O)(=O)N1CCC([C@H](C(=O)NO)[C@@H](Cc2cccc(O)c2)C(=O)N[C@H]2c3ccccc3C[C@H]2O)CC1 | 8.52 | 5.68 | 
3 | O=C(N[C@H]1c2ccccc2C[C@H]1O)[C@H](Cc1cccc(O)c1)[C@@H](C(=O)NO)C1CCNCC1 | 7.55 | 5.40 | clearance [3]: 1.67 mL/min/kg; Tmax [4]: 1.5 h; Vd [5]: 0.3 L/kg; clearance [6]: 8.33 mL/min/kg; bioavailability [7]: 1%; Tmax [8]: 4.3 h; bioavailability [9]: 20%; Vd [10]: 0.2 L/kg; half-life [11]: 3.8 h; half-life [12]: 4 h
4 | O=C(N[C@H]1c2ccccc2C[C@H]1O)[C@H](Cc1cccc(O)c1)[C@@H](C(=O)NO)C1CN(C(=O)C(F)(F)F)C1 | 8.52 | 5.83 | 
5 | CC(C)(C)OC(=O)N1CCC([C@H](C(=O)O)C(Cc2cccc(O)c2)C(=O)N[C@H]2c3ccccc3C[C@H]2O)CC1 (stereo not given in full) | < 6.00 | < 5.67 | 
6 | CCC(=O)N1CCC(C[C@H](C(=O)NO)[C@@H](Cc2cccc(O)c2)C(=O)N[C@H]2c3ccccc3C[C@H]2O)CC1 | 7.01 | < 5.67 | 
7 | O=C(N[C@H]1c2ccccc2C[C@H]1O)[C@H](Cc1cccc(O)c1)[C@@H](C(=O)NO)C1CNC1 | 8.15 | < 5.67 | 

Second part, led by results:

Row | pIC50 [1] | pKi [2] | SMILES | other results
8 | 6.68 | < 5.67 | CN1CCC([C@H](C(=O)NO)[C@@H](Cc2cccc(O)c2)C(=O)N[C@H]2c3ccccc3C[C@H]2O)CC1 | 
9 | 7.72 | 5.89 | CC(C)(C)OC(=O)N1CCC([C@H](C(=O)NO)[C@@H](Cc2cccc(O)c2)C(=O)N[C@H]2c3ccccc3C[C@H]2O)CC1 | 
10 | 8.15 | 6.08 | CCOC(=O)N1CCC([C@H](C(=O)NO)[C@@H](Cc2cccc(O)c2)C(=O)N[C@H]2c3ccccc3C[C@H]2O)CC1 | 
11 | 7.54 | 5.76 | CC(=O)N1CCC(C(C(=O)NO)C(Cc2cccc(O)c2)C(=O)N[C@H]2c3ccccc3C[C@H]2O)CC1 (single isomer, unassigned) | 
12 | 7.35 | < 5.67 | CCN1CCC(C(C(=O)NO)C(Cc2cccc(O)c2)C(=O)N[C@H]2c3ccccc3C[C@H]2O)CC1 (single isomer, unassigned) | 
13 | 6.94 | < 5.67 | CC(=O)N1CCC(CC(C(=O)NO)C(Cc2cccc(O)c2)C(=O)N[C@H]2c3ccccc3C[C@H]2O)CC1 (single isomer, unassigned) | 
